Data published in PubChem BioAssay (NCI).
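Briefly, cells in 96-well plates were exposed to five compound concentrations for 48 h, and endpoints were estimated by linear interpolation. GI50: concentration for 50% inhibition of growth. TGI: total growth inhibition.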

What was measured:
Assay in all cases: NCI-60 cell line screen, 48 h
[1] = test system: MOLT-4 leukemia
[2] = test system: HOP-92 NSCLC
[3] = test system: KM12 colon
[4] = test system: MALME-3M melanoma
[5] = test system: TK-10 renal
[6] = test system: SW-620 colon
[7] = test system: CCRF-CEM leukemia
[8] = test system: DU-145 prostate
[9] = test system: SK-MEL-28 melanoma
[10] = test system: SK-OV-3 ovarian

Q: What does the source list for `COc1cccc(N2CC(O)=C(c3nc4ccccc4s3)C2=N)c1`?
A: GI50 [1]: 0.166 µM; TGI [1]: > 100 µM; GI50 [2]: 3.99 µM; TGI [2]: > 57.2 µM; GI50 [3]: 0.234 µM; TGI [3]: > 100 µM; GI50 [4]: 0.266 µM; TGI [4]: > 100 µM; GI50 [5]: 3.24 µM; TGI [5]: 70.2 µM; GI50 [6]: 0.341 µM; TGI [6]: > 100 µM; GI50 [7]: 0.243 µM; TGI [7]: > 100 µM; GI50 [8]: 1.75 µM; TGI [8]: > 100 µM; GI50 [9]: 0.468 µM; TGI [9]: > 65 µM; GI50 [10]: 0.702 µM; TGI [10]: 33.5 µM

Q: What does the source list for `CCOC(=O)C1=C(Nc2ccc(OC)cc2)C(N)=NC1=N`?
A: GI50 [1]: 4.38 µM; TGI [1]: > 100 µM; GI50 [2]: 2.56 µM; TGI [2]: > 100 µM; GI50 [3]: 2.64 µM; TGI [3]: > 100 µM; GI50 [4]: 7.29 µM; TGI [4]: > 100 µM; GI50 [5]: 8.31 µM; TGI [5]: > 100 µM; GI50 [6]: 3.95 µM; TGI [6]: > 100 µM; GI50 [7]: 3.24 µM; TGI [7]: > 100 µM; GI50 [8]: 3.49 µM; TGI [8]: > 100 µM; GI50 [9]: 6.89 µM; TGI [9]: > 100 µM; GI50 [10]: 2.99 µM; TGI [10]: 18.1 µM

Q: For `COc1cc2c(cc1OCC(=O)Nc1ccc(Cl)cc1C(=O)c1ccccc1Cl)N=CC1CCCN1C2=O` (centres undefined), which GI50 [1] is on record?
A: 4.44 µM

Q: And the TGI [1]?
A: 28.2 µM

Q: What about the GI50 [2] of the same molecule?
A: 10.9 µM

Q: What about the TGI [2] of the same molecule?
A: 28.8 µM

Q: And the GI50 [3]?
A: 11.8 µM

Q: And the TGI [3]?
A: 26 µM

Q: What about the GI50 [4] of the same molecule?
A: 20.1 µM

Q: And the TGI [4]?
A: 37 µM

Q: And the GI50 [5]?
A: 12.2 µM

Q: What about the TGI [5] of the same molecule?
A: 25.1 µM

Q: What about the GI50 [6] of the same molecule?
A: 11.8 µM

Q: What about the TGI [6] of the same molecule?
A: 25.8 µM

Q: What about the GI50 [7] of the same molecule?
A: 6.52 µM

Q: And the TGI [7]?
A: > 100 µM

Q: And the GI50 [8]?
A: 2.65 µM

Q: And the TGI [8]?
A: 8.56 µM

Q: What about the GI50 [9] of the same molecule?
A: 19.9 µM

Q: And the TGI [9]?
A: 36.4 µM

Q: And the GI50 [10]?
A: 3.08 µM

Q: And the TGI [10]?
A: 12 µM

Q: Which GI50 [1] does the source give for `CCCCCCCCN(CCCCCCCC)CC(O)c1cc(-c2ccccc2)nc2ccc(OC)cc12` (centres undefined) here?
A: 23.1 µM

Q: What about the TGI [1] of the same molecule?
A: > 100 µM

Q: And the GI50 [2]?
A: 57.5 µM

Q: What about the TGI [2] of the same molecule?
A: > 100 µM

Q: What about the GI50 [3] of the same molecule?
A: 79.9 µM

Q: And the TGI [3]?
A: > 100 µM

Q: And the GI50 [4]?
A: > 100 µM

Q: What about the TGI [4] of the same molecule?
A: > 100 µM

Q: And the GI50 [5]?
A: > 100 µM

Q: What about the TGI [5] of the same molecule?
A: > 100 µM

Q: What about the GI50 [6] of the same molecule?
A: 16.5 µM

Q: What about the TGI [6] of the same molecule?
A: > 100 µM

Q: What about the GI50 [7] of the same molecule?
A: 26.1 µM

Q: What about the TGI [7] of the same molecule?
A: > 100 µM

Q: What about the GI50 [8] of the same molecule?
A: 37 µM

Q: And the TGI [8]?
A: > 100 µM

Q: What about the GI50 [9] of the same molecule?
A: 62.3 µM

Q: And the TGI [9]?
A: > 100 µM

Q: And the GI50 [10]?
A: > 100 µM

Q: What about the TGI [10] of the same molecule?
A: > 100 µM

Q: Which GI50 [1] does the source give for `Cc1nnc(N/N=C/c2ccc([N+](=O)[O-])o2)[nH]c1=O` here?
A: 0.833 µM

Q: What about the TGI [1] of the same molecule?
A: > 100 µM

Q: And the GI50 [2]?
A: 0.228 µM

Q: What about the TGI [2] of the same molecule?
A: 1.76 µM

Q: And the GI50 [3]?
A: 0.575 µM

Q: What about the TGI [3] of the same molecule?
A: > 100 µM

Q: And the GI50 [4]?
A: 0.97 µM

Q: What about the TGI [4] of the same molecule?
A: 4.3 µM

Q: What about the GI50 [5] of the same molecule?
A: 1.03 µM

Q: What about the TGI [5] of the same molecule?
A: > 25 µM

Q: What about the GI50 [6] of the same molecule?
A: 1.24 µM

Q: And the TGI [6]?
A: > 100 µM

Q: What about the GI50 [7] of the same molecule?
A: 0.441 µM

Q: What about the GI50 [8] of the same molecule?
A: 2.1 µM

Q: What about the TGI [8] of the same molecule?
A: > 100 µM

Q: And the GI50 [9]?
A: 0.815 µM

Q: What about the TGI [9] of the same molecule?
A: > 100 µM

Q: And the GI50 [10]?
A: 3.77 µM

Q: And the TGI [10]?
A: > 93.5 µM

Q: Which results are given for `CCN(CC)CCOc1nc2ccccc2c2c1-c1ccc(OC)cc1C2=O`?
A: GI50 [1]: 0.251 µM; TGI [1]: 0.924 µM; GI50 [2]: 2.09 µM; TGI [2]: > 28.6 µM; GI50 [3]: 0.395 µM; TGI [3]: 1.58 µM; GI50 [4]: 0.628 µM; TGI [4]: 1.97 µM; GI50 [5]: 1.85 µM; TGI [5]: 12.6 µM; GI50 [6]: 0.282 µM; TGI [6]: 1.58 µM; GI50 [7]: 0.267 µM; TGI [7]: 2.23 µM; GI50 [8]: 0.505 µM; TGI [8]: 2.16 µM; GI50 [9]: 1.63 µM; TGI [9]: 3.29 µM; GI50 [10]: 2.48 µM; TGI [10]: > 36.6 µM
